The target in this experiment is T1, human TLR8 (Homo sapiens, UniProt Q9NR97).
T1 construct: expressed in transfected cells; host or cells: HEK-Blue Null1 cells, lentiviral infection
T1 sequence (Q9NR97 27-1041): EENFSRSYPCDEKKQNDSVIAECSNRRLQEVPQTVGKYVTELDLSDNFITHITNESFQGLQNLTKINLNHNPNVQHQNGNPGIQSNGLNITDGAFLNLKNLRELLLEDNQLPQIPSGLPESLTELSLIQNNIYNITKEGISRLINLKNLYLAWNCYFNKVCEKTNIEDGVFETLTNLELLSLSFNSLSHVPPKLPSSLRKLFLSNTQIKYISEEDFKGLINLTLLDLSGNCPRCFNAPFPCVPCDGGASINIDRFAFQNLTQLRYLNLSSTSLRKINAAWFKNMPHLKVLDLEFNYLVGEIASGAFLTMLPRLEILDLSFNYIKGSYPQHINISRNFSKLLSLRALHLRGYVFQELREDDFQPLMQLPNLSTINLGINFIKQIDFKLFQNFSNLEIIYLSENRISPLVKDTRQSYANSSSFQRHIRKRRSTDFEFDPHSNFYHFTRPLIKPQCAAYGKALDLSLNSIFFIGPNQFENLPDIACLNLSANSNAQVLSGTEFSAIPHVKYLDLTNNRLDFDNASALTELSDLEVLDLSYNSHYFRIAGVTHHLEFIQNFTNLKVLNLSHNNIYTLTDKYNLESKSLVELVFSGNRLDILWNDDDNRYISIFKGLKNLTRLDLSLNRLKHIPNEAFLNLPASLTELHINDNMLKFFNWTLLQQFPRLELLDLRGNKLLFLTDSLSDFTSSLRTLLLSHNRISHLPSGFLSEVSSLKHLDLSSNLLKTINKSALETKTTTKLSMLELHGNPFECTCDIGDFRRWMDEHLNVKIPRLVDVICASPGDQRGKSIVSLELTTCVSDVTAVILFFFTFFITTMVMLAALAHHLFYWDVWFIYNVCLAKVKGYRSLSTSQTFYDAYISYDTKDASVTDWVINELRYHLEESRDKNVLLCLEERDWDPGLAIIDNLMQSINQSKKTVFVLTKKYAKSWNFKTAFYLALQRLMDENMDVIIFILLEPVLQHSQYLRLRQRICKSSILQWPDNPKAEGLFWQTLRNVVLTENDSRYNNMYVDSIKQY
Kind of experiment: SEAP reporter assay in HEK-Blue TLR8 cells, R848-induced TLR8 signaling. Type of experiment: cell-based. On the procedure:
SEAP reporter assay: HEK-Blue TLR8 cells were seeded in tissue culture treated 96-well plates with a density of 7.5×10^4 cells/well in DMEM media supplemented with 10% FBS (phosphatases deactivated with heat). […] Plates are then incubated in humidified incubators containing 5% CO2 at 37° C. for 24 h, after which, 30 μL of culture media was transfer to a new plate and 100 μL of Quanti-Blue (Invivogen) was added, the plate was then incubated at 37° C. till color change (30 min-1 h). Readout of absorbance at 620 nm was quantified using Beckman-Coulter DTX 880 Multimode Detector. […] SEAP assays for each sample were conducted with three biological replicates, each in triplicate.
To establish a robust high throughput assay for TLR8 inhibitors, the inventors first engineered a cell line stably overexpressing the human TLR8 whose activation can be reported by the Secreted Embryonic Alkaline Phosphatase (SEAP) assay. TLR8-overexpresing HEK-Blue cells were prepared by lentiviral infection of HEK-Blue Null1 cells that have null or low basal expression of endogenous TLR genes. […] The TLR8-mediated NF-κB activation can be assessed by measuring the SEAP activity.
On the technique in general: Reporter assays use an easily measured gene product as a stand-in for the process of interest.

The mark [1] stands for this setting: 1(2H)-phthalazinone and quinoline derivatives in HEK-Blue hTLR8 cells.
The mark [2] stands for this setting: pyrazolo[1,5-a]pyrimidine derivatives in HEK-Blue hTLR8 cells, ± SD, at least three biological replicates.
Setting [3] is: quinoline derivatives in HEK-Blue hTLR8 cells, ± SD, at least three biological replicates.

The structures appear in SMILES notation. Like-named read-outs stand apart in the source and are kept apart here.

Under setting [1], `Cc1ccc(C)c(-c2n[nH]c(=O)c3ccccc23)c1` [Compound 7, 4-(2,5-Dimethylphenyl)-1(2H)-Phthalazinone] had an IC50 of more than 20 µM. Molecule `N#Cc1cc(-c2n[nH]c(=O)c3ccccc23)ccc1O` [Compound 28, 4-(4-Hydroxy-3-cyanophenyl)-1(2H)-phthalazinone] came in with an IC50 under setting [1] of more than 20 µM. As for `NC(=O)c1cnn2c(-c3cc(C(F)(F)F)cc(C(F)(F)F)c3)ccnc12` [Compound 6i], inhibition under setting [2] was half-maximal at 0.25 ± 0.13 µM (IC50). Same read-out and setting: the figure for `COc1ccccc1-c1ccnc2c(C(N)=O)cnn12` [Compound 6j] is 2.31 µM. In the case of `Cc1cccc(-c2ccnc3c(C(=O)O)cnn23)c1` [Compound 4b], the “inhibitory activity against TLR8 signaling” value (up to 20 μM) was “did not show any inhibitory activity”. In the case of `Cc1cc(-c2n[nH]c(=O)c3ccccc23)c(C)c(C)c1O` [Compound 24, 4-(4-Hydroxy-2,3,5-trimethylphenyl)-1(2H)-phthalazinone], the IC50 under setting [1] is more than 20 µM. Regarding `Cc1cc(-c2ccc(O)c3ccccc23)ccc1O` [Compound 2, 4-(4-Hydroxy-3-methylphenyl)-1-naphthol], the IC50 under setting [1] stood at 0.48 ± 0.43 µM. As to `CC(=O)Oc1c(C)cc(-c2n[nH]c(=O)c3ccccc23)cc1C` [Compound 17, 4-(4-Acetoxy-3,5-dimethylphenyl)-1(2H)-phthalazinone], the IC50 under setting [1] was found to be 4.76 ± 0.42 µM. Take `NC(=O)c1cnn2c(-c3ccccc3C(F)(F)F)ccnc12` [Compound 6c]: half-maximal inhibition under setting [2] (IC50) required 0.23 ± 0.14 µM. In turn, `Cc1cc(-c2nn(C)c(=O)c3ccccc23)cc(C)c1O` [Compound 4, 4-(4-Hydroxy-3,5-dimethylphenyl)-2-methyl-1(2H)-Phthalazinone] gave an IC50 under setting [1] of 0.17 ± 0.02 µM. As for `O=c1[nH]nc(-c2ccc(O)c3ccccc23)c2ccccc12` [Compound 25, 4-(4-Hydroxy-naphthyl)-1(2H)-phthalazinone], the IC50 under setting [1] was more than 20 µM. The same measure, in the same setting: the figure for `COc1ccc(-c2ccc(O)c(C)c2)c2ccccc12` [Compound 1, 1-Methoxy-4-(4-hydroxy-3-methylphenyl)-naphthalene] is 7.03 ± 0.36 µM; for `Cc1cc(C)cc(-c2n[nH]c(=O)c3ccccc23)c1` [Compound 8, 4-(3,5-Dimethylphenyl)-1(2H)-phthalazinone] it is more than 20 µM; for `Cc1cc(-c2nncc3ccccc23)ccc1O` [Compound 41, 1-(3-Methyl-4-Hydroxyphenyl)-phthalazine] it is 6.75 ± 1.3 µM. Still for that read-out and setting: the value for `COc1ccc(-c2n[nH]c(=O)c3ccccc23)cc1` [Compound 9, 4-(4-Methoxyphenyl)-1(2H)-phthalazinone] was more than 20 µM.

In turn, `Cc1cc(-c2n[nH]c(=O)c3ccccc23)ccc1O` [Compound 14b] had an IC50 under setting [3] of 1.3 ± 0.32 µM. Same read-out and setting: the figure for `Cc1cc(-c2cccc3ccccc23)ccc1O` [Compound 11d] is more than 20 µM.

For `Cc1cc(-c2cccc3ccccc23)ccc1O` [Compound 43, 1-(4-Hydroxy-3-methylphenyl)naphthalene], the IC50 under setting [1] is more than 20 µM. On to `Cc1cc(-c2nn(C)c(=O)c3ccccc23)ccc1O` [Compound 30, 4-(4-Hydroxy-3-methylphenyl)-2-methyl-1(2H)-phthalazinone], for which the IC50 under setting [1] stood at 0.33 ± 0.04 µM. Under setting [1], `COc1c(C)cc(-c2n[nH]c(=O)c3ccccc23)cc1C` [Compound 11, 4-(4-Methoxy-3,5-dimethylphenyl)-1(2H)-phthalazinone] gave an IC50 of more than 20 µM. Still for that read-out and setting: the figure for `O=c1c2ccccc2c(-c2ccccc2)nn1-c1ccccc1` [Compound 33, 2,4-Diphenyl-1(2H)-phthalazinone] is more than 20 µM; for `Cc1cc(-c2n[nH]c(=O)c3cccnc23)cc(C)c1O` [Compound 35] it is 13 ± 2.14 µM. Still for that read-out and setting: the value for `COc1ccc(-c2nn(C)c(=O)c3ccccc23)cc1` [Compound 10, 4-(4-Methoxyphenyl)-2-methyl-1(2H)-phthalazinone] was more than 20 µM; that for `CC(=O)Oc1ccc(-c2n[nH]c(=O)c3ccccc23)cc1C` [Compound 18, 4-(4-Acetoxy-3-methylphenyl)-1(2H)-phthalazinone] was 3.77 ± 0.45 µM.

For the molecule `NC(=O)c1cnn2c(-c3cccc(C(F)(F)F)c3)ccnc12` [Compound 6a], for the setting “HEK-Blue TLR8 cells”, the “fold higher potency than 6c” value was 2 fold and the “fold higher potency than 6d” value came out at 10 fold. The IC50 (HEK-Blue TLR8 cells, R848 as agonist) amounted to 0.13 µM. In turn, `Cc1cc(-c2ccc(N)c3ccccc23)ccc1O` [Compound 3, 1-Amino-4-(4-hydroxy-3-methylphenyl)-naphthalene] showed an IC50 under setting [1] of 2.72 ± 0.31 µM. On to `Cc1cc(-c2cnnc3ccccc23)ccc1O` [Compound 45, 4-(4-Hydroxy-3-methylphenyl)-cinnolin], for which, under setting [1], the IC50 is 0.34 ± 0.02 µM.

Under setting [1], `O=c1[nH]nc(-c2ccc(O)cc2)c2ccccc12` [Compound 19, 4-(4-Hydroxyphenyl)phthalazin-1(2H)-one] had an IC50 of more than 20 µM.

For the molecule `COc1ccc(-c2n[nH]c(=O)c3ccccc23)cc1C(F)(F)F` [Compound 27, 4-(4-Methoxyl-3-trifluoromethylphenyl)-1(2H)-phthalazinone], under setting [1], the IC50 was more than 20 µM. Under setting [2], `COc1cccc(-c2ccnc3c(C(N)=O)cnn23)c1` [Compound 6k] returned an IC50 of 1.2 µM. Under setting [2], `NC(=O)c1cnn2c(-c3ccc(C(F)(F)F)cc3)ccnc12` [Compound 6d] came in with an IC50 of 1.22 µM. With `O=c1[nH]nc(-c2ccc(O)c(C(F)(F)F)c2)c2ccccc12` [Compound 26, 4-(4-Hydroxy-3-trifluoromethylphenyl)-1(2H)-phthalazinone], the 50% inhibitory concentration (IC50) under setting [1] is more than 20 µM. Still for that read-out and setting: the value for `Cc1cc(-c2nncc3ccccc23)cc(C)c1O` [Compound 40, 1-(3,5-Dimethyl-4-Hydroxyphenyl)-phthalazine] was 11.4 ± 0.36 µM. Regarding `NC(=O)c1cnn2c(-c3cccc(F)c3)ccnc12` [Compound 6g], under setting [2], the IC50 amounted to 0.45 ± 0.09 µM. Consider `CCOC(=O)c1cnn2c(-c3cccc(C(F)(F)F)c3)ccnc12` [Compound 3a], for which the midpoint of inhibition under setting [2], the IC50, lay at 0.21 ± 0.043 µM. The same measure, in the same setting: the value for `NC(=O)c1cnn2c(-c3cccc([N+](=O)[O-])c3)ccnc12` [Compound 6f] was 0.22 ± 0.07 µM.

Molecule `Cc1cc(-c2ccnc3[nH]ccc23)ccc1O` [Compound 49, 4-(4-Hydroxyl-3-methylphenyl)-7-azaindole] gave an IC50 under setting [1] of 0.09 ± 0.03 µM.

`CCc1cc(-c2n[nH]c(=O)c3ccccc23)ccc1O` [Compound 22, 4-(4-Hydroxy-3-ethylphenyl)-1(2H)-phthalazinone] returned an IC50 under setting [1] of 2.73 ± 0.85 µM. Same read-out and setting: the value for `Cc1cc(-c2ncnc3ccccc23)ccc1O` [Compound 38, 4-(3-Methyl-4-Hydroxyphenyl)quinazoline] was 0.35 ± 0.12 µM; that for `COc1ccc(-c2n[nH]c(=O)c3ccccc23)cc1[N+](=O)[O-]` [Compound 29, 4-(4-Methoxyl-3-nitrophenyl)-1(2H)-phthalazinone] was more than 20 µM. On the same count and under the same terms, the value for `Cc1cc(-c2n[nH]c(=O)c3ccccc23)cc(C)c1C(=O)O` [Compound 13, 4-(4-Carboxylic-3,5-dimethylphenyl)-1(2H)-phthalazinone] was more than 20 µM. With `Cc1cc(-c2ccnc3cc(Cl)ccc23)ccc1O` [CU-CPT9c, 4-(7-Chloro-4-quinolinyl)-2-methyl-phenol], the midpoint of inhibition, the IC50, lay at 0.001 ± 0.0002 µM. Take `CC(C)c1cc(-c2n[nH]c(=O)c3ccccc23)cc(C(C)C)c1O` [Compound 23, 4-(4-Hydroxy-3,5-diisopropylphenyl)-1(2H)-phthalazinone]: the IC50 under setting [1] was more than 20 µM. For the molecule `CCn1nc(-c2ccc(O)c(C)c2)c2ccccc2c1=O` [Compound 31, 4-(4-Hydroxy-3-methylphenyl)-2-ethyl-1(2H)-phthalazinone], the IC50 under setting [1] is more than 20 µM. `CCOC(=O)c1cnn2c(-c3cccc(C)c3)ccnc12` [Compound 3b] had an IC50 under setting [2] of 0.092 ± 0.015 µM. Under setting [1], `Cc1cc(-c2n[nH]c(=O)c3ccccc23)cc(C)c1N` [Compound 15] showed an IC50 of more than 20 µM.

In general, IC50 refers to the midpoint of a concentration-inhibition curve.

The values are drawn from patent US11466010B2, “Toll-like receptor 8 (TLR8) specific antagonists and methods of making and uses thereof” (The Regents of the University of Colorado, a body corporate, priority 2017, dated 2022).
